Laboratory results taken from patent publication US11718600B2, “1,2,3-triazole inhibitors of P97 AAA ATPase activity” (University of Pittsburgh—Of the Commonwealth System of …, priority 2018, dated 2023).

Target: p97 (Homo sapiens, UniProt P55072)
Assay: BioMol Green ATPase assay
Assay type: biochemical
Conditions: 200 μM ATP
From the text: Biomol Green (Enzo) is a […] from a biochemical reaction. Because of its high sensitivity, the assay is suitable for monitoring enzyme activities at very early substrate conversions requiring very low amount of enzymes.
The assay procedure used may be the same as in Zhang et al., “Altered cofactor regulation with disease-associated p97/VCP mutations,” Proc. Natl. Acad. Sci. USA, 112(14), E1705-E1714 (2015).
The BioMol Green ATPase assay procedure used was that which was disclosed in Zhang, et al., “Altered cofactor regulation with disease-associated p97/VCP mutations,” Proc. Natl. Acad. Sci. USA, 112(14), E1705-E1714 (2015). Compounds also show activity in a cell-based assay such as the ubiquitin assay.

Chain of p97 (P55072 whole entry): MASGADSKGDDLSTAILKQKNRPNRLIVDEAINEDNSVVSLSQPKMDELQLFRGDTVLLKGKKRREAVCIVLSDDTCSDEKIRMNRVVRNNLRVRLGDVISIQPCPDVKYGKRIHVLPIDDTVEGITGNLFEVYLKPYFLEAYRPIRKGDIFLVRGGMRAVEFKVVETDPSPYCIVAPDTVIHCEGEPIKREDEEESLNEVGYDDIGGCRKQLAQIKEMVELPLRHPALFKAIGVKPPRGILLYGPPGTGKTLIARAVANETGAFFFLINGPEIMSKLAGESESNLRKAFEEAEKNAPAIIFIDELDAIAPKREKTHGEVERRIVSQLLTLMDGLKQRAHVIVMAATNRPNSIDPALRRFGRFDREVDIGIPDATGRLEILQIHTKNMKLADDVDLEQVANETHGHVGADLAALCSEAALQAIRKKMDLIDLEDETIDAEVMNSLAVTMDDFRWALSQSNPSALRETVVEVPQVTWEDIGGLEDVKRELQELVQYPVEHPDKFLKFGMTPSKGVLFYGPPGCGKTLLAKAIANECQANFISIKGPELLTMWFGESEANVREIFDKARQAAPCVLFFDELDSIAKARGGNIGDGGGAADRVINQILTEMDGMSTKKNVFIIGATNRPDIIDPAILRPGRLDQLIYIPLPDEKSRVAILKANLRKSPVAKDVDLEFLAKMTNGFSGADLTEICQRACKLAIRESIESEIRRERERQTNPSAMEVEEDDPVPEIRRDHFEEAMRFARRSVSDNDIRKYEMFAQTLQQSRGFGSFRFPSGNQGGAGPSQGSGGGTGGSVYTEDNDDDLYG

| IC50 [µM] | SMILES |
| --- | --- |
| < 0.1 | CC(C)(C)OC(=O)N1CCN(CCn2ncc(-c3cc(F)c(OCc4nnc(SC5C=CCCC5)n4-c4cccnc4)cc3F)n2)CC1 (centres unmarked) [Entry 8] |
| < 0.05 | COC(=O)Cn1ncc(-c2cc(F)c(OCc3nnc(SC4C=CCCC4)n3-c3cccnc3)cc2F)n1 (centres unmarked) [Entry 20] |
| < 0.05 | CC(C)(C)OC(=O)N1CCN(C(=O)Cn2ncc(-c3cc(F)c(OCc4nnc(SC5C=CCCC5)n4-c4cccnc4)cc3F)n2)CC1 (centres unmarked) [Entry 1] |
| < 1 | [2H]C1([2H])C([2H])([2H])C([2H])([2H])C([2H])(Sc2nnc(COc3cc(F)c(-c4cn(CC(=O)N5CCN(C(=O)OC(C)(C)C)CC5)nn4)cc3F)n2-c2cccnc2)C1([2H])[2H] [Entry 4] |
| < 0.05 | CN1CCN(C(=O)Cn2ncc(-c3cc(F)c(OCc4nnc(SC5C=CCCC5)n4-c4cccnc4)cc3F)n2)CC1 (centres unmarked) [Entry 7] |
| < 1 | CC(C)(C)OC(=O)N1CCN(C(=O)Cn2cc(-c3cc(F)c(OCc4nnc(SC5C=CCCC5)n4-c4cccnc4)cc3F)nn2)CC1 (centres unmarked) [Entry 2] |
| < 0.05 | [2H]C1([2H])C([2H])([2H])C([2H])([2H])C([2H])(Sc2nnc(COc3cc(F)c(-c4cnn(CC(=O)N5CCNCC5)n4)cc3F)n2-c2cccnc2)C1([2H])[2H] [Entry 5] |
| < 0.05 | CN1CCC(NC(=O)Cn2ncc(-c3cc(F)c(OCc4nnc(SC5C=CCCC5)n4-c4cccnc4)cc3F)n2)CC1 (centres unmarked) [Entry 22] |
| < 1 | CC(C)(C)OC(=O)N1CCN(C(=O)Cn2ncc(-c3cc(F)c(OCc4nnc(S[C@@H]5C=CCCC5)n4-c4cccnc4)cc3F)n2)CC1 [Entry 16] |
| < 0.05 | [2H]C1([2H])C([2H])([2H])C([2H])([2H])C([2H])(Sc2nnc(COc3cc(F)c(-c4cnn(CC(=O)N5CCN(C(=O)OC(C)(C)C)CC5)n4)cc3F)n2-c2cccnc2)C1([2H])[2H] [Entry 3] |
| < 0.1 | O=C(O)Cn1ncc(-c2cc(F)c(OCc3nnc(SC4C=CCCC4)n3-c3cccnc3)cc2F)n1 (centres unmarked) [Entry 21] |
| < 0.05 | CNC(=O)OCCn1ncc(-c2cc(F)c(OCc3nnc(S[C@H]4C=CCCC4)n3-c3cccnc3)cc2F)n1 [Entry 11] |
| < 1 | Fc1cc(-c2cnn(CCOCc3ccccc3)n2)c(F)cc1OCc1nnc(SC2C=CCCC2)n1-c1cccnc1 (centres unmarked) [Entry 14] |
| < 1 | [2H]C1([2H])C([2H])([2H])C([2H])([2H])C([2H])(Sc2nnc(COc3cc(F)c(-c4cn(CC(=O)N5CCNCC5)nn4)cc3F)n2-c2cccnc2)C1([2H])[2H] [Entry 6] |
| < 0.05 | CN1CCC(NC(=O)OCCn2ncc(-c3cc(F)c(OCc4nnc(SC5C=CCCC5)n4-c4cccnc4)cc3F)n2)CC1 (centres unmarked) [Entry 10] |
| < 0.05 | CN1CCN(C(=O)Cn2ncc(-c3cc(F)c(OCc4nnc(S[C@H]5C=CCCC5)n4-c4cccnc4)cc3F)n2)CC1 [Entry 13] |
| < 1 | OCCn1cc(-c2cc(F)c(OCc3nnc(SC4C=CCCC4)n3-c3cccnc3)cc2F)nn1 (centres unmarked) [Entry 18] |
| < 0.1 | CN1CCN(C(=O)OCCn2ncc(-c3cc(F)c(OCc4nnc(S[C@H]5C=CCCC5)n4-c4cccnc4)cc3F)n2)CC1 [Entry 12] |
| < 0.05 | COC(=O)Cn1ncc(-c2cc(F)c(OCc3nnc(S[C@H]4C=CCCC4)n3-c3cccnc3)cc2F)n1 [Entry 23] |
| < 0.05 | OCCn1ncc(-c2cc(F)c(OCc3nnc(SC4C=CCCC4)n3-c3cccnc3)cc2F)n1 (centres unmarked) [Entry 9] |
| < 1 | CN1CCC(NC(=O)OCCn2cc(-c3cc(F)c(OCc4nnc(SC5C=CCCC5)n4-c4cccnc4)cc3F)nn2)CC1 (centres unmarked) [Entry 19] |
| < 0.05 | CC(C)(C)OC(=O)N1CCN(C(=O)Cn2ncc(-c3cc(F)c(OCc4nnc(S[C@H]5C=CCCC5)n4-c4cccnc4)cc3F)n2)CC1 [Entry 17] |
| < 0.05 | OCCn1ncc(-c2cc(F)c(OCc3nnc(S[C@H]4C=CCCC4)n3-c3cccnc3)cc2F)n1 [Entry 15] |
